For 13 compounds, chromatographic logP, pest or weed control and inhibition results are on record in patent US20230192617A1, “AZABICYCLIC(THIO)AMIDES AS FUNGICIDAL COMPOUNDS” (Bayer CropScience Aktiengesellschaft, priority 2020, published 2023).

Data set [1] can be described thus: Measurement of Log P values by HPLC on reversed phase columns (EEC directive 79/831 Annex V.A8). In kind it is physicochemical. The settings on record: reversed phase HPLC column, method [a]: LC-UV, acidic range, 0.1% formic acid in water and acetonitrile as eluent. An outline of the steps:
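Log P derived from retention on reversed-phase columns (EEC directive 79/831 Annex V.A8), LC-UV, acetonitrile gradient 10% to 95% against water containing 0.1% formic acid, 0.001 M ammonium acetate, or 0.1% phosphoric acid; several values per method separated by "+".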

For another data set, the system named is Alternaria brassicae. Nature of the data set: In vivo preventive test on Alternaria brassicae (leaf spot on radish or cabbage). The settings on record: 500 ppm of active ingredient, preventive spray on radish or cabbage, evaluated 3 to 4 days after inoculation, read-out: efficacy. An outline of the steps: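 Protective spray on young radish or cabbage: actives in water diluted from DMSO/acetone/Tween 80, with solvent-only controls. Leaves were challenged after 24 h with a spore suspension, and plants were held at 100% RH, 20 °C for 3 to 4 days.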

Data set [2] has as its system Botrytis cinerea. Nature of the data set: In vivo preventive test on Botrytis cinerea (grey mould). The settings on record: 500 ppm of active ingredient, preventive spray on gherkin or cabbage, evaluated 4 to 5 days after inoculation, read-out: efficacy. The gist of the method:
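Preventive spray on cabbage or gherkin seedlings, with compound formulated in DMSO/acetone/Tween 80 and water-diluted, preceded spore inoculation by 24 hours. Cabbage was held 4 to 5 days at 20° C., 100% relative humidity; gherkin 4 to 5 days at 17° C., 90% relative humidity.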

Data set [3] has as its system Pyrenophora teres. Nature of the data set: In vivo preventive test on Pyrenophora teres (net blotch on barley). The settings on record: 240 h, 500 ppm of active ingredient, preventive spray on barley, evaluated 10 days after inoculation, read-out: efficacy. An outline of the steps:
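Net blotch spores were sprayed onto barley leaves one day after foliar treatment with water-diluted DMSO/acetone/Tween 80 formulations (solvent-only controls). Plants were kept at 20° C: first 48 hours at 100% relative humidity, then 8 days at 70-80%.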

A further data set deals with Sphaerotheca fuliginea. Nature of the data set: In vivo preventive test on Sphaerotheca fuliginea (powdery mildew on cucurbits). Particulars: Podosphaera fuliginea, 192 h; 500 ppm of active ingredient; preventive spray on gherkin; evaluated 8 days after inoculation; read-out: efficacy. The gist of the method:
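This is a preventive spray test on gherkin seedlings, with compound formulated in DMSO/acetone/Tween 80 in water and solvent-only controls. Spore inoculation followed one day after treatment. Incubation lasted 8 days at 20 °C, 70–80% RH.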

In another data set the test system is Alternaria alternata. Nature of the data set: Alternaria alternata in vitro cell test. In kind it is cell-based. The settings on record: 120 h, 20 ppm of active ingredient, liquid culture, 5 days incubation, spectrometric measurement of mycelium growth, read-out: efficacy (inhibition of fungal growth). An outline of the steps:
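Spectrometric readout of mycelial growth after 5-day incubation gauged compound effects on spore germination and growth of A. alternata in liquid medium. Compounds were delivered in DMSO at ≤1% final. Absorbance was compared with untreated controls to give inhibition.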

In data set [4] the test system is Colletotrichum lindemuthianum. Nature of the data set: B-8. Colletotrichum lindemuthianum in vitro cell test. In kind it is cell-based. The settings on record: 144 h, 20 ppm of active ingredient, 6 days incubation, liquid culture, absorbance, read-out: efficacy (inhibition of fungal growth). The gist of the method:
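Liquid-culture germination/growth test: compounds in ≤1% final DMSO were added to spore-containing medium. Fungal growth was quantified spectrophotometrically after 6 days of incubation and expressed as inhibition versus untreated controls.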

The subject of a further data set is Septoria tritici. Nature of the data set: B-9. Septoria tritici in vitro cell test. The settings on record: Zymoseptoria tritici, 168 h; 20 ppm of active ingredient; 7 days incubation; liquid culture, absorbance; read-out: efficacy (inhibition of fungal growth). In kind it is cell-based. The method, then:
B-9. Septoria tritici In Vitro Cell Test [table] Fungicides were solubilized in DMSO and the solution used to prepare the required range of concentrations. The final concentration of DMSO used in the assay was ≤1%. A spore suspension of S. tritici was prepared and diluted to the desired spore density. Fungicides were evaluated for their ability to inhibit spore germination and mycelium growth in liquid culture assay. The compounds were added in the desired concentration to the culture medium with spores. After 7 days incubation, fungi-toxicity of compounds was determined by spectrometric measurement of mycelium growth. Inhibition of fungal growth was determined by comparing the absorbance values in wells containing the fungicides with the absorbance in control wells without fungicides.

For data set [5], the system named is Pyrenophora teres. Nature of the data set: B-10. Pyrenophora teres in vitro cell test. In kind it is cell-based. Particulars: 144 h, 20 ppm of active ingredient, 6 days incubation, liquid culture, absorbance, read-out: efficacy (inhibition of fungal growth). The gist of the method:
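Liquid-culture assay on a P. teres spore suspension with compounds added to the medium from DMSO solutions, final DMSO ≤1%. Mycelium growth read spectrometrically after 6 days. Inhibition calculated from absorbance against untreated control wells.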

Data set [6] relates to Botrytis cinerea. Nature of the data set: B-11. Botrytis cinerea in vitro cell test. In kind it is cell-based. Particulars: 144 h, 20 ppm of active ingredient, 6 days incubation, liquid culture, absorbance, read-out: efficacy (inhibition of fungal growth). An outline of the steps: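 B. cinerea spores were grown in liquid culture with compound (DMSO ≤1% final). Mycelium growth was measured spectrometrically after 6 days, with inhibition taken as absorbance relative to untreated control wells.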

Data set [7] has as its system Colletotrichum lindemuthianum. Nature of the data set: In vivo preventive test on Colletotrichum lindemuthianum (leaf spot on bean). The settings on record: 168 h, 500 ppm of active ingredient, preventive spray on bean, evaluated 7 days after inoculation, read-out: efficacy. The gist of the method:
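Young bean plants sprayed with compound in DMSO/acetone/Tween 80 diluted in water; solvent-only controls. Inoculated 24 h later with C. lindemuthianum spore suspension, then kept 24 h at 20 °C/100% RH and 6 days at 20 °C/90% RH.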

The structures appear in SMILES notation.

Regarding `Cc1ccc(C(F)(F)CNC(=O)c2c(Oc3cccc(C(F)(F)F)c3)nnc3cc(C4CC4)ccc23)cc1C` [I-235], the chromatographic logP (as a rule, lipophilicity estimated from chromatographic retention) in data set [1] is 5. In addition, the pest or weed control at 500 ppm in the data set on Alternaria brassicae is 90 to 100%; in the data set with Botrytis cinerea [2], 90 to 100%; with Pyrenophora teres [3] it was 80 to 89%; in the data set with Sphaerotheca fuliginea, 90 to 100%. Besides, the inhibition at 20 ppm (in the data set with Alternaria alternata; in data set [4]; with Septoria tritici; in the data set with Pyrenophora teres [5]; with Botrytis cinerea [6]) was 90 to 100% throughout.
Take `O=C(NCCc1ncc(Cl)cn1)c1c(Oc2cccc(C(F)(F)F)c2)nnc2ccccc12` [I-077]: the chromatographic logP in [1] is 2.91. The pest or weed control at 500 ppm lay in the range of 90 to 100% with Alternaria brassicae, 90 to 100% with Botrytis cinerea [2] and 70 to 79% in data set [7]. In addition, the inhibition at 20 ppm (with Alternaria alternata; in data set [4]; with Septoria tritici; in the data set on Pyrenophora teres [5]; in the data set with Botrytis cinerea [6]) was 90 to 100% each time.
For `Cc1ccc(C(F)(F)CNC(=O)c2c(Oc3cccc(Cl)c3)cnc3nccnc23)c(C)c1` [I-234], the chromatographic logP in data set [1] came out at 3.37. Also, the results for the pest or weed control at 500 ppm (in the data set on Alternaria brassicae; in the data set on Botrytis cinerea [2]; in data set [7]) were 90 to 100%, 90 to 100% and 80 to 89%, respectively. Also, the inhibition at 20 ppm (with Alternaria alternata; in data set [4]; in the data set with Septoria tritici; in the data set with Pyrenophora teres [5]; with Botrytis cinerea [6]) was 90 to 100% in each case.
`Cc1ccc(C(F)(F)CNC(=O)c2c(Oc3cccc(C4CC4)c3F)cnc3nccnc23)c(C)c1` [I-099] displayed a chromatographic logP in data set [1] of 3.71. Further, the pest or weed control at 500 ppm (in the data set with Alternaria brassicae; with Botrytis cinerea [2]; in [7]) was 90 to 100% in each case. Moreover, the inhibition (commonly how much of the control response was suppressed) at 20 ppm is 90 to 100% in the data set with Alternaria alternata; 90 to 100% in data set [4]; 80 to 89% in the data set with Septoria tritici; 90 to 100% in the data set on Pyrenophora teres [5]; 90 to 100% in the data set on Botrytis cinerea [6].
For `O=C(NCCc1ccc2c(c1)CCO2)c1c(Oc2cccc(C(F)(F)F)c2)nnc2ccccc12` [I-081], in data set [1], the chromatographic logP was 3.53. For the same compound, the pest or weed control at 500 ppm (in the data set on Alternaria brassicae; with Botrytis cinerea [2]; in data set [7]) was 90 to 100% in each case. For the same compound, the inhibition at 20 ppm was in the range of 90 to 100% with Alternaria alternata; 90 to 100% in data set [4]; 70 to 79% in the data set on Septoria tritici; 90 to 100% with Pyrenophora teres [5]; 90 to 100% with Botrytis cinerea [6].
In [1], `O=C(NOCc1ccc(C(F)(F)F)cc1)c1c(Oc2cccc(C(F)(F)F)c2)nnc2ccccc12` [I-089] registered a chromatographic logP of 3.42. The pest or weed control at 500 ppm fell in the range of 90 to 100% in the data set on Alternaria brassicae and 70 to 79% in the data set with Botrytis cinerea [2]. For the same compound, the inhibition at 20 ppm was in the range of 90 to 100% in the data set on Alternaria alternata; 90 to 100% in [4]; 80 to 89% in the data set on Septoria tritici; 90 to 100% in the data set on Pyrenophora teres [5]; 90 to 100% in the data set on Botrytis cinerea [6].
As for `O=C(NCC(F)c1ccc(Cl)cc1Cl)c1c(Oc2cccc(C(F)F)c2)nnc2c1CCCC2` (centres unmarked) [I-177], in [1], the chromatographic logP is 3.63. For the same compound, the inhibition at 20 ppm (in the data set with Alternaria alternata; in data set [4]; in the data set with Septoria tritici; in the data set on Pyrenophora teres [5]; with Botrytis cinerea [6]) was 90 to 100% throughout.
`Cc1ccc(C(F)CNC(=O)c2c(Oc3cccc(Cl)c3)nnc3c2CCCC3)c(C)c1` (centres unmarked) [I-233] had a chromatographic logP in data set [1] of 3.73. Moreover, the inhibition at 20 ppm (in the data set with Alternaria alternata; in data set [4]; with Septoria tritici; in the data set on Pyrenophora teres [5]; with Botrytis cinerea [6]) was 90 to 100% each time.
With `Cc1ccc(C(F)(F)CNC(=O)c2c(Oc3cccc(C(F)(F)F)c3)nnc3c2COCC3)c(C)c1` [I-122], the chromatographic logP in data set [1] amounted to 3.7. Further, the pest or weed control at 500 ppm in the data set on Alternaria brassicae was in the range of 90 to 100%; in the data set with Botrytis cinerea [2], 90 to 100%; in the data set on Sphaerotheca fuliginea, 90 to 100%; in [7], 80 to 89%. Moreover, the inhibition at 20 ppm (in the data set with Alternaria alternata; in data set [4]; in the data set on Septoria tritici; with Pyrenophora teres [5]; with Botrytis cinerea [6]) was 90 to 100% each time.
In the case of `Cc1ccc(CCNC(=O)c2c(Oc3cccc(C(F)(F)F)c3)cnc3ccccc23)c(C)c1` [I-002], the chromatographic logP in data set [1] stood at 4.17. Moreover, the pest or weed control at 500 ppm with Botrytis cinerea [2] and with Sphaerotheca fuliginea was 90 to 100% throughout. Also, the inhibition at 20 ppm (in the data set on Alternaria alternata; in [4]; in the data set on Septoria tritici; with Botrytis cinerea [6]) was 90 to 100% each time.
As for `Cc1ccc(C(F)(F)CNC(=O)c2c(Oc3cccc(C(F)(F)F)c3)nnc3cc(C4CC4)ccc23)c(C)c1` [I-242], the chromatographic logP in data set [1] came to 5.12. The pest or weed control at 500 ppm in the data set on Alternaria brassicae was in the range of 90 to 100%; in the data set with Botrytis cinerea [2] it was 90 to 100%; in the data set on Pyrenophora teres [3] it was 70 to 79%; with Sphaerotheca fuliginea it was 80 to 89%. The inhibition at 20 ppm in the data set with Alternaria alternata is 90 to 100%; in data set [4], 90 to 100%; in the data set on Septoria tritici, 80 to 89%; in the data set with Pyrenophora teres [5] it was 90 to 100%; in the data set on Botrytis cinerea [6], 90 to 100%.
In [1], `COc1cc([C@@H](F)CNC(=O)c2c(Oc3cccc(C(F)(F)F)c3)nnc3ccccc23)ccc1Cl` (racemic) [I-176] returned a chromatographic logP of 3.92. Moreover, the results for the pest or weed control at 500 ppm (in the data set on Alternaria brassicae; in the data set on Pyrenophora teres [3]; in data set [7]) were 90 to 100%, 80 to 89% and 70 to 79%, respectively. The inhibition at 20 ppm in the data set with Alternaria alternata was 90 to 100%; in the data set on Septoria tritici, 80 to 89%; in the data set with Pyrenophora teres [5] it was 90 to 100%; in the data set with Botrytis cinerea [6], 90 to 100%.
In data set [1], `Cc1ccc(C(F)(F)CNC(=O)c2c(Oc3cccc(Br)c3)cnc3nccnc23)c(C)c1` [I-241, 7-(3-bromophenoxy)-N-[2-(2,4-dimethylphenyl)-2,2-difluoro-ethyl]pyrido[2,3-b]pyrazine-8-carboxamide] registered a chromatographic logP of 3.46. The pest or weed control at 500 ppm (in the data set with Alternaria brassicae; in the data set with Botrytis cinerea [2]; in [7]) was 90 to 100% throughout. The inhibition at 20 ppm (with Alternaria alternata; in data set [4]; in the data set on Septoria tritici; with Pyrenophora teres [5]; in the data set with Botrytis cinerea [6]) was 90 to 100% in each case.
